Assay results as given in publication PMC6906431, “Selective small molecule PARG inhibitor causes replication fork stalling and cancer cell death” (Nature Communications, 2019).

System: MDA-MB-231 PARG knockdown (PARG-KD) cells
Assay: Cellular PARylation, anti-PAR immunoblot
Format: cell-based, human
Protocol: Fig. 6 Selective inhibition of PARG by xanthine derivative JA2131. a Clonogenic survival assays of PC3, MDA-MB-231, and MCF-7 cells treated with PARGi. Cells were treated with either DMSO or 10 µM JA2131 for 2 h, irradiated with 3 Gy (MDA-MB-231 and MCF-7), 7 Gy (PC3) IR and grown for ~2 weeks, then colonies were fixed with methanol and stained with crystal violet. The results of three independent experiments are shown. Error bars = the standard error of the mean (SEM). b dose-response of JA2131 in MDA-MB-231 cells with and without IR. Cells were treated with designated concentrations of JA2131 for 2 h and then either left untreated or exposed to 3 Gy IR and allowed to recover for 1 h before lysis. Total protein was immunoblotted with anti-PAR antibody (upper panel), stripped and reprobed with anti-PCNA as a loading control. c MDA-MB-231 cells with stable scrambled shRNA (WT) or stable PARG shRNA, knockdown (KD), were treated with 5 μM JA2131 for 2 h, lysed and then total lysates were immunoblotted for anti-PAR (upper panel) followed by anti-PARG (upper middle panel), anti-PARP1 (lower middle panel) and anti-actin (bottom panel) antibody. […] Stable cells with scramble shRNA (control) and shPARG (PARG-KD) cells were treated with an increasing concentration of JA2131 for growth inhibitory IC50 determination. The data was normalized against 100% survival at the lowest inhibitor concentration. Error bars show the percent coefficient of variation. Equivalent concentrations of DMSO were used as a negative control. e The cytotoxicity of JA2131 along with PDD, Veliparib and Doxorubicin against MRC-5 cells. Error bars show the percent coefficient of variation. f CETSA for in-cell JA2131 target engagement. Normalized anti-PARG western blot intensities of three independent experiments were fitted as above and the estimated aggregation temperature (Tagg) is shown in the tabulated insert. Source Data are provided as a Source Data file.
Using shRNA, next, we generated a stable MDA-MB-231 PARG knockdown (PARG-KD) cell-line (Supplementary Fig. 10). We compared PARGi JA2131-induced PARylation in PARG-KD and control cells. We reasoned that PARG-KD cells would show a reduced response to a selective PARGi as the stable PARG-KD cells would have to adopt a PARG-independent survival mechanism. MDA-MB-231 control cells and PARG-KD cells were treated with JA2131, then total cell lysates were subjected to immunoblotting with anti-PAR antibody, followed by immunodetection for anti-PARG, PARP1 and Actin antibody (Fig. 6c). […] Dose-response curves comparing control and PARG-KD cells further validate the selective action of JA2131 on control cells expressing PARG, but not on the PARG-KD cells (Supplementary Fig. 12).
PC3, MDA-MB-231 cells were maintained in RPMI 1640, MCF-7 cells in Eagle’s Minimum Essential Medium (EMEM), MRC-5 cells in Eagle’s Minimum Essential Medium and Hela and U2OS cells in Dulbecco’s modified Eagle’s high glucose medium (DMEM) supplemented with 10% (vol/vol) fetal bovine serum (FBS) and 1% antibiotic/antimycotic (Lonza) in a humidified incubator with 10% CO2. All cell lines were purchased from ATCC and regularly checked for mycoplasma and cell authentication. SUM 149PT cells were cultured in F-12 Hams (Gibco) supplemented with 5% fetal bovine serum, insulin, and hydrocortisone. […] Cells were fixed with methanol (100%), stained with crystal violet and analyzed using a GelCount instrument (Oxford Optronix Ltd). […]

Cn1c(=S)c2[nH]c(SCCN3CCOCC3)nc2n(C)c1=O [JA2131]
anti-PAR western blot band, Normalized (5 μM JA2131 2 h, Ci-DMSO = 1): 8.898
anti-PAR western blot band, Intensity inversion (5 μM JA2131 2 h, ImageJ): 0.00723
anti-PAR western blot band, Neg. substracted (5 μM JA2131 2 h, ImageJ): 0.001922
anti-PAR western blot band, mean int. (5 μM JA2131 2 h, ImageJ): 138.32
PAR accumulation after treatment (5 μM, 2 h): did not affect the level of PAR accumulation
